Test results published in US12319655B2, “RAF kinase inhibitors and methods of use thereof” (Deciphera Pharmaceuticals, LLC, priority 2021, dated 2025).

Test system: A375 cells
Assay: A375 Cell Proliferation Assay (1)
Format: cell-based
Conditions: Homo sapiens, A-375
How it was run: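 Resazurin fluorescence (excitation 540 nm, emission 600 nm, after a further 5-6 h) gave IC50s from triplicate compound dilution series.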

| SMILES | IC50 [nM] |
| --- | --- |
| COC(=O)Nc1cc(-c2cccc(-c3cc(NC(=O)c4ccnc(C(C)(C)F)c4)cnc3C)c2)ncn1 [Example 404] | 100 to 500 |
| COC(=O)Nc1cc(-c2cncc(-c3cc(NC(=O)c4ccnc(C5(C#N)CC5)c4)ccc3C)c2)ncn1 [Example 405] | ≤ 100 |
| Cc1ncc(NC(=O)c2ccnc(C(C)(C)F)c2)cc1-c1cncc(-c2cc(NC(=O)C3CC3)ncn2)c1 [Example 406] | ≤ 100 |
| Cc1ncc(NC(=O)c2ccnc(C(C)(C)C#N)c2)cc1-c1cccc(-c2cnc3ccccn23)c1 [Example 407] | 1000 to 10000 |
| CNC(=O)c1cc(-c2cncc(-c3cc(NC(=O)c4ccnc(C(C)(C)F)c4)c(F)cc3C)c2)ccn1 [Example 408] | 100 to 500 |
| COC(=O)Nc1cc(-c2cnnc(-c3cc(NC(=O)c4cn(C(C)C)nn4)ccc3C)c2)ccn1 [Example 409] | 1000 to 10000 |
| Cc1ncc(NC(=O)c2ccnc(C(C)(C)C#N)c2)cc1-c1cncc(-c2cc(NC(=O)C3CC3)ncn2)c1 [Example 410] | ≤ 100 |
| Cc1ccc(NC(=O)c2ccnc(C(C)(C)F)c2)cc1-c1cncc(-c2cc(N)ncn2)c1 [Example 411] | 500 to 1000 |
| Cc1ccc(NC(=O)c2cn(C(C)C)nn2)cc1-c1cncc(-c2cc(NC(=O)C3CC3)ncn2)c1 [Example 412] | ≤ 100 |
| CNC(=O)c1cc(-c2cncc(-c3cc(NC(=O)c4ccnc(C(C)(C)F)c4)ccc3C)c2)ccn1 [Example 413] | ≤ 100 |
| COC(=O)Nc1cc(-c2cncc(-c3cc(NC(=O)c4ccnc(C(C)(C)C#N)c4)ccc3C)c2)ncn1 [Example 414] | ≤ 100 |
| COC(=O)Nc1cc(-c2cccc(-c3cc(NC(=O)Cn4cc(C(C)C)nn4)cnc3C)c2)ccn1 [Example 415] | 1000 to 10000 |
| COC(=O)Nc1cc(-c2cc(-c3cc(NC(=O)c4ccnc(C(C)(C)F)c4)ccc3C)nc(C)n2)ccn1 [Example 416] | 100 to 500 |
| Cc1ccc(NC(=O)c2ccnc(C(C)(C)F)c2)cc1-c1cncc(-c2ccnc(NC(=O)C3CC3)c2)c1 [Example 417] | ≤ 100 |
| Cc1cc(F)c(NC(=O)c2ccnc(C(C)(C)C#N)c2)cc1-c1cncc(-c2ccnc(NC(=O)C3CC3)c2)c1 [Example 418] | ≤ 100 |
| Cc1ccc(NC(=O)c2ccnc(C(C)(F)F)c2)cc1-c1cncc(-c2cc(NC(=O)C3CC3)ncn2)c1 [Example 419] | ≤ 100 |
| Cc1ccc(NC(=O)c2ccnc(C(C)(C)C#N)c2)cc1-c1cncc(-c2cc(NC(=O)C(C)C)ncn2)c1 [Example 420] | ≤ 100 |
| Cc1ccc(NC(=O)c2cc(C3CC3)on2)cc1-c1cncc(-c2cc(NC(=O)C3CC3)ncn2)c1 [Example 421] | ≤ 100 |
| Cc1ccc(NC(=O)c2ccnc(C(C)(C)C#N)c2)cc1-c1cncc(-c2cc(N)ncn2)c1 [Example 422] | 1000 to 10000 |
| Cc1cc(F)c(NC(=O)c2ccnc(C(C)(C)F)c2)cc1-c1cncc(-c2cc(NC(=O)C3CC3)ncn2)c1 [Example 423] | ≤ 100 |
| Cc1cc(F)c(NC(=O)c2ccnc(C(C)(C)C#N)c2)cc1-c1cncc(-c2cc(NC(=O)C3CC3)ncn2)c1 [Example 424] | ≤ 100 |
| COC(=O)Nc1cc(-c2cncc(-c3cc(NC(=O)c4ccnc(C(C)(C)F)c4)ccc3C)c2)ncn1 [Example 425] | ≤ 100 |
| CNC(=O)c1cc(-c2nccc(-c3cc(NC(=O)c4ccnc(C(C)(C)F)c4)c(F)cc3C)n2)ccn1 [Example 427] | 100 to 500 |
| CNC(=O)c1cc(-c2cc(-c3cc(NC(=O)c4ccnc(C(C)(C)F)c4)ccc3C)nc(C)n2)ccn1 [Example 428] | 100 to 500 |
| Cc1ccc(NC(=O)c2ccnc(C(F)F)c2)cc1-c1cncc(-c2cc(NC(=O)C3CC3)ncn2)c1 [Example 429] | ≤ 100 |
| Cc1ccc(NC(=O)c2cnn(C3CC3)c2)cc1-c1cncc(-c2cc(NC(=O)C3CC3)ncn2)c1 [Example 430] | 100 to 500 |
| Cc1ccc(NC(=O)c2cc(C(C)(C)C)on2)cc1-c1cncc(-c2cc(NC(=O)C3CC3)ncn2)c1 [Example 431] | ≤ 100 |
| Cc1ccc(NC(=O)c2ccnc(C(C)(C)F)c2)cc1-c1cncc(-c2ccnc3c2CC(=O)N3)c1 [Example 432] | 500 to 1000 |
